{"source": "PubChem BioAssay AID330", "about": "(DTP/NCI, 2004)", "test_system": "P388 leukemia ip, CD2F1 mice, survival T/C", "test": "NCI In Vivo Anticancer Drug Screen. Data for tumor model P388 Leukemia (intraperitoneal) in CD2F1 (CDF1) mice", "conditions": "endpoint: median survival time, higher = longer survival", "in_short": "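Mice carrying the transplanted tumor received test compound or vehicle. Survival was recorded in each group, and the value is the treated-group measurement divided by that of the vehicle-treated control group.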", "key": {"[1]": {"conditions": "dose: 100.0 mg/kg/injection, schedule: Q01DX009 (ip), vehicle: saline with Tween-80"}, "[2]": {"conditions": "dose: 100.0 mg/kg/injection, schedule: Q04DX003 (ip), vehicle: saline with Tween-80"}, "[3]": {"conditions": "dose: 200.0 mg/kg/injection, schedule: Q04DX003 (ip), vehicle: saline with Tween-80"}, "[4]": {"conditions": "dose: 100.0 mg/kg/injection, schedule: Q04DX003 (ip), vehicle: saline"}, "[5]": {"conditions": "dose: 25.0 mg/kg/injection, schedule: Q04DX003 (ip), vehicle: saline with Tween-80"}, "[6]": {"conditions": "dose: 50.0 mg/kg/injection, schedule: Q04DX003 (ip), vehicle: saline with Tween-80"}, "[7]": {"conditions": "dose: 25.0 mg/kg/injection, schedule: Q01DX009 (ip), vehicle: saline with Tween-80"}, "[8]": {"conditions": "dose: 50.0 mg/kg/injection, schedule: Q01DX009 (ip), vehicle: saline with Tween-80"}, "[9]": {"conditions": "dose: 100.0 mg/kg/injection, schedule: Q01DX001 (ip), vehicle: Klucel (hydroxypropylcellulose) (HPC)"}}, "note": "Several values for one entry are separate records, joined by “and”; a condition that tells them apart may be missing. Identical values can stand only once. Toxic doses and inconclusive results are not listed.", "data": [{"smiles": "CCCCC(=O)N/N=C(\\C)[C@]1(O)Cc2c(O)c3c(c(O)c2[C@@H](OC2CC(N)C(O)C(C)O2)C1)C(=O)c1c(OC)cccc1C3=O", "note": "(stereo partly specified)", "values": [{"measurement": "T/C", "setting": "dose: 0.12 mg/kg/injection, schedule: Q01DX009 (ip), vehicle: water", "value": "117 % of control"}, {"measurement": "T/C", "setting": "dose: 0.25 mg/kg/injection, schedule: Q01DX009 (ip), vehicle: water", "value": "122 % of control"}, {"measurement": "T/C", "setting": "dose: 0.5 mg/kg/injection, schedule: Q01DX009 (ip), vehicle: water", "value": "155 % of control"}, {"measurement": "T/C", "setting": "dose: 1.0 mg/kg/injection, schedule: Q01DX009 (ip), vehicle: water", "value": "190 % of control"}, {"measurement": "T/C", "setting": "dose: 2.0 mg/kg/injection, schedule: Q01DX009 (ip), vehicle: water", "value": "180 % of control and 190 % of control"}, {"measurement": "T/C", "setting": "dose: 4.0 mg/kg/injection, schedule: Q01DX009 (ip), vehicle: water", "value": "195 % of control and 238 % of control"}, {"measurement": "T/C", "setting": "dose: 8.0 mg/kg/injection, schedule: Q01DX009 (ip), vehicle: water", "value": "152 % of control and 247 % of control"}]}, {"smiles": "S=c1sc2ccccc2n1CCNc1ccccc1", "values": [{"measurement": "T/C", "setting": "[1]", "value": "90 % of control"}, {"measurement": "T/C", "setting": "[2]", "value": "90 % of control"}, {"measurement": "T/C", "setting": "dose: 200.0 mg/kg/injection, schedule: Q01DX009 (ip), vehicle: saline with Tween-80", "value": "90 % of control"}, {"measurement": "T/C", "setting": "[3]", "value": "95 % of control"}, {"measurement": "T/C", "setting": "dose: 400.0 mg/kg/injection, schedule: Q01DX009 (ip), vehicle: saline with Tween-80", "value": "86 % of control"}, {"measurement": "T/C", "setting": "dose: 400.0 mg/kg/injection, schedule: Q04DX003 (ip), vehicle: saline with Tween-80", "value": "104 % of control"}]}, {"smiles": "CCOC(=O)C1=C(C)O/C(=C/c2cccc(Cl)c2)C1=O", "values": [{"measurement": "T/C", "setting": "dose: 50.0 mg/kg/injection, schedule: Q01DX005 (ip), vehicle: saline with Tween-80", "value": "117 % of control and 119 % of control"}, {"measurement": "T/C", "setting": "dose: 100.0 mg/kg/injection, schedule: Q01DX005 (ip), vehicle: saline with Tween-80", "value": "121 % of control and 123 % of control"}, {"measurement": "T/C", "setting": "dose: 200.0 mg/kg/injection, schedule: Q01DX005 (ip), vehicle: saline with Tween-80", "value": "113 % of control"}]}, {"smiles": "CN1/C(=C2\\C=CC=C\\C2=N/S(=O)(=O)c2ccccc2)Sc2ccccc21", "values": [{"measurement": "T/C", "setting": "[4]", "value": "104 % of control"}, {"measurement": "T/C", "setting": "dose: 200.0 mg/kg/injection, schedule: Q04DX003 (ip), vehicle: saline", "value": "99 % of control"}, {"measurement": "T/C", "setting": "dose: 400.0 mg/kg/injection, schedule: Q04DX003 (ip), vehicle: saline", "value": "94 % of control"}]}, {"smiles": "COc1cccc2c1C(=O)c1c(O)c3c(c(O)c1C2=O)CC(O)(C(=O)COC1CC(OC(C)=O)C(OC(C)=O)C(C)O1)CC3OC1CC(OC(C)=O)C(OC(C)=O)C(C)O1", "note": "(stereo unspecified)", "values": [{"measurement": "T/C", "setting": "dose: 3.13 mg/kg/injection, schedule: Q04DX003 (ip), vehicle: saline with Tween-80", "value": "100 % of control"}, {"measurement": "T/C", "setting": "dose: 6.25 mg/kg/injection, schedule: Q04DX003 (ip), vehicle: saline with Tween-80", "value": "100 % of control"}, {"measurement": "T/C", "setting": "dose: 12.5 mg/kg/injection, schedule: Q04DX003 (ip), vehicle: saline with Tween-80", "value": "100 % of control"}, {"measurement": "T/C", "setting": "[5]", "value": "95 % of control"}, {"measurement": "T/C", "setting": "[6]", "value": "100 % of control"}]}, {"smiles": "C/C(=N/O)[c-]1[c-][c-][c-][c-]1.[Fe].[c-]1[c-][c-][cH-][c-]1", "values": [{"measurement": "T/C", "setting": "[7]", "value": "120 % of control"}, {"measurement": "T/C", "setting": "[8]", "value": "115 % of control"}, {"measurement": "T/C", "setting": "[1]", "value": "100 % of control"}]}, {"smiles": "[CH3][Sn]([CH3])([O]S(=O)c1ccc(Cl)cc1)[O]S(=O)c1ccc(Cl)cc1", "note": "(stereo unspecified)", "values": [{"measurement": "T/C", "setting": "[9]", "value": "114 % of control"}, {"measurement": "T/C", "setting": "dose: 200.0 mg/kg/injection, schedule: Q01DX001 (ip), vehicle: Klucel (hydroxypropylcellulose) (HPC)", "value": "105 % of control"}]}, {"smiles": "CCCCN(CCCC)C1/C(=N\\O)C2CC1C1CC=CC21", "note": "(stereo unspecified)", "values": [{"measurement": "T/C", "setting": "dose: 60.0 mg/kg/injection, schedule: Q01DX005 (ip), vehicle: saline + Tween-80 + alcohol", "value": "95 % of control"}, {"measurement": "T/C", "setting": "dose: 120.0 mg/kg/injection, schedule: Q01DX005 (ip), vehicle: saline + Tween-80 + alcohol", "value": "94 % of control"}, {"measurement": "T/C", "setting": "dose: 240.0 mg/kg/injection, schedule: Q01DX005 (ip), vehicle: saline + Tween-80 + alcohol", "value": "94 % of control"}]}, {"smiles": "NC(Cc1ccc(Br)cc1)c1nn[nH]n1", "note": "(stereo unspecified)", "values": [{"measurement": "T/C", "setting": "[7]", "value": "104 % of control"}, {"measurement": "T/C", "setting": "[8]", "value": "100 % of control"}, {"measurement": "T/C", "setting": "[1]", "value": "100 % of control"}]}, {"smiles": "C=C1C(=O)OC2/C=C(\\C)CC/C=C(\\C)CC(OC(=O)/C(=C/C)CO)C12", "note": "(stereo unspecified)", "values": [{"measurement": "T/C", "setting": "dose: 25.0 mg/kg/injection, schedule: Q01DX001 (ip), vehicle: Klucel (hydroxypropylcellulose) (HPC)", "value": "101 % of control"}, {"measurement": "T/C", "setting": "dose: 50.0 mg/kg/injection, schedule: Q01DX001 (ip), vehicle: Klucel (hydroxypropylcellulose) (HPC)", "value": "96 % of control"}, {"measurement": "T/C", "setting": "[9]", "value": "110 % of control"}]}, {"smiles": "CCc1c(CC(=O)O)c2cc(C)ccc2n1Cc1ccc(Cl)cc1", "values": [{"measurement": "T/C", "setting": "dose: 12.5 mg/kg/injection, schedule: Q01DX009 (ip), vehicle: saline with Tween-80", "value": "95 % of control"}, {"measurement": "T/C", "setting": "[7]", "value": "104 % of control"}, {"measurement": "T/C", "setting": "[5]", "value": "104 % of control and 95 % of control and 91 % of control"}, {"measurement": "T/C", "setting": "[8]", "value": "109 % of control"}, {"measurement": "T/C", "setting": "[6]", "value": "108 % of control and 91 % of control"}, {"measurement": "T/C", "setting": "[2]", "value": "90 % of control and 108 % of control and 92 % of control"}, {"measurement": "T/C", "setting": "[4]", "value": "96 % of control"}, {"measurement": "T/C", "setting": "[3]", "value": "90 % of control"}]}]}
